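In this assay, cells in 96-well plates receive the compound at five concentrations for 48 hours. Endpoints are linearly interpolated between the surrounding concentrations. GI50: concentration for 50% inhibition of growth.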 Active and inactive are the calls of the source. Rule as the data show it: active = GI50 up to about 1.1 µM and inactive = higher.
Key:
Assay in all cases: growth of human tumour cells (NCI), 48 h
[1] = test system: SF-295
[2] = test system: LXFL 529
[3] = test system: HOP-62
[4] = test system: OVCAR-4
[5] = test system: RXF 393
[6] = test system: M19-MEL
[7] = test system: HL-60
[8] = test system: HCT-15
[9] = test system: SF-268
[10] = test system: 786-0
[11] = test system: UO-31
[12] = test system: U-251
[13] = test system: SW-620
[14] = test system: A549
[15] = test system: SN12C
[16] = test system: NCI-H522
[17] = test system: MOLT-4
[18] = test system: XF498
[19] = test system: EKVX
[20] = test system: SK-MEL-2
[21] = test system: CCRF-CEM
[22] = test system: OVCAR-5
[23] = test system: M14
[24] = test system: SF-539
[25] = test system: OVCAR-8
[26] = test system: DMS-114
[27] = test system: HOP-18
[28] = test system: DMS-273
[29] = test system: TK-10
[30] = test system: NCI-H460
[31] = test system: LOX IMVI
[32] = test system: RPMI-8226
[33] = test system: UACC-62
[34] = test system: UACC-257
[35] = test system: HCC 2998
[36] = test system: OVCAR-3
[37] = test system: ACHN
[38] = test system: KM-20L2
[39] = test system: NCI-H23
[40] = test system: SK-OV-3
[41] = test system: SNB-75
[42] = test system: SNB-19
[43] = test system: HT-29
[44] = test system: K562
[45] = test system: SK-MEL-5
[46] = test system: Malme-3M
[47] = test system: RXF 631
[48] = test system: NCI-H226
[49] = test system: IGROV-1
[50] = test system: KM12
[51] = test system: COLO 205
[52] = test system: A498
[53] = test system: DLD-1
[54] = test system: CAKI-1
[55] = test system: SK-MEL-28
[56] = test system: SNB-78
[57] = test system: HOP-92
[58] = test system: HCT-116
[59] = test system: SR

With `O=C1OC(CC(=O)c2ccc(Cl)c(Cl)c2)C(Cl)=C1Cl` (stereo not given) the GI50 [1] was > 100 µM (inactive), the GI50 [2] was 58.6 µM (inactive) and the GI50 [3] was > 100 µM (inactive). For the same compound, the GI50 [4] was > 100 µM (inactive), the GI50 [5] was > 100 µM (inactive) and the GI50 [6] was > 100 µM (inactive). The GI50 [7] was 82 µM (inactive), the GI50 [8] was > 100 µM and the GI50 [9] was > 100 µM (inactive). For the same compound, the GI50 [10] was > 100 µM (inactive), the GI50 [11] was > 100 µM (inactive) and the GI50 [12] was > 100 µM (inactive). For the same compound, the GI50 [13] was > 100 µM (inactive), the GI50 [14] was > 100 µM (inactive) and the GI50 [15] was > 100 µM (inactive). The GI50 [16] was 22.5 µM (inactive), the GI50 [17] was 38.7 µM (inactive) and the GI50 [18] was 64 µM (inactive). For the same compound, the GI50 [19] was > 100 µM (inactive), the GI50 [20] was > 100 µM (inactive) and the GI50 [21] was 20.8 µM (inactive). The GI50 [22] was > 100 µM (inactive), the GI50 [23] was > 100 µM (inactive) and the GI50 [24] was 74.5 µM (inactive). The GI50 [25] was > 100 µM (inactive), the GI50 [26] was 52.6 µM (inactive) and the GI50 [27] was > 100 µM (inactive). For the same compound, the GI50 [28] was > 100 µM (inactive), the GI50 [29] was > 100 µM (inactive) and the GI50 [30] was > 100 µM (inactive). The GI50 [31] was > 100 µM (inactive), the GI50 [32] was > 100 µM (inactive) and the GI50 [33] was > 100 µM (inactive). For the same compound, the GI50 [34] was > 100 µM (inactive), the GI50 [35] was > 100 µM (inactive) and the GI50 [36] was > 100 µM (inactive). The GI50 [37] was > 100 µM (inactive), the GI50 [38] was > 100 µM (inactive) and the GI50 [39] was > 100 µM (inactive). For the same compound, the GI50 [40] was > 100 µM (inactive), the GI50 [41] was > 100 µM (inactive) and the GI50 [42] was 79.3 µM (inactive). The GI50 [43] was > 100 µM (inactive), the GI50 [44] was 38.8 µM (inactive) and the GI50 [45] was > 100 µM (inactive). The GI50 [46] was > 100 µM (inactive), the GI50 [47] was > 100 µM (inactive) and the GI50 [48] was 68.9 µM (inactive). For the same compound, the GI50 [49] was > 100 µM (inactive), the GI50 [50] was > 100 µM (inactive) and the GI50 [51] was > 100 µM (inactive). For the same compound, the GI50 [52] was 31.2 µM (inactive), the GI50 [53] was > 100 µM (inactive) and the GI50 [54] was > 100 µM (inactive). For the same compound, the GI50 [55] was > 100 µM (inactive).

`Cc1ccc(NC(=O)C2C(=O)N(c3ccc(C)c(C)c3)C(=O)C2N=N)cc1C` (stereo not given) was tested, and the GI50 [1] was 65 µM (inactive), the GI50 [2] was > 100 µM (inactive) and the GI50 [3] was > 100 µM (inactive). The GI50 [4] was > 100 µM (inactive), the GI50 [5] was > 100 µM (inactive) and the GI50 [6] was > 100 µM (inactive). The GI50 [7] was > 100 µM (inactive), the GI50 [8] was 74.6 µM and the GI50 [9] was > 100 µM (inactive). For the same compound, the GI50 [10] was > 100 µM (inactive), the GI50 [11] was > 100 µM (inactive) and the GI50 [12] was 95.9 µM (inactive). For the same compound, the GI50 [13] was > 100 µM (inactive), the GI50 [14] was 58.9 µM (inactive) and the GI50 [15] was > 100 µM (inactive). For the same compound, the GI50 [16] was 38.1 µM (inactive), the GI50 [17] was > 100 µM (inactive) and the GI50 [18] was > 100 µM (inactive). For the same compound, the GI50 [19] was > 100 µM (inactive), the GI50 [20] was > 100 µM (inactive) and the GI50 [22] was > 100 µM (inactive). The GI50 [23] was > 100 µM (inactive), the GI50 [24] was > 100 µM (inactive) and the GI50 [25] was 99.5 µM (inactive). For the same compound, the GI50 [26] was 61.5 µM (inactive), the GI50 [27] was > 100 µM (inactive) and the GI50 [28] was 86.5 µM (inactive). The GI50 [29] was > 100 µM (inactive), the GI50 [30] was 89.7 µM (inactive) and the GI50 [33] was > 100 µM (inactive). For the same compound, the GI50 [56] was > 100 µM (inactive), the GI50 [34] was > 100 µM (inactive) and the GI50 [35] was > 100 µM (inactive). The GI50 [36] was > 100 µM (inactive), the GI50 [57] was 47.9 µM (inactive) and the GI50 [37] was 90.4 µM (inactive). The GI50 [38] was > 100 µM (inactive), the GI50 [39] was 74.5 µM (inactive) and the GI50 [40] was > 100 µM (inactive). For the same compound, the GI50 [41] was > 100 µM (inactive), the GI50 [42] was > 100 µM (inactive) and the GI50 [43] was > 100 µM (inactive). The GI50 [45] was 67 µM (inactive), the GI50 [46] was > 100 µM (inactive) and the GI50 [47] was > 100 µM (inactive). For the same compound, the GI50 [48] was > 100 µM (inactive), the GI50 [49] was 97.1 µM (inactive) and the GI50 [50] was > 100 µM (inactive). For the same compound, the GI50 [51] was > 100 µM (inactive), the GI50 [58] was > 100 µM (inactive) and the GI50 [52] was > 100 µM (inactive). For the same compound, the GI50 [53] was > 100 µM (inactive), the GI50 [54] was > 100 µM (inactive) and the GI50 [55] was > 100 µM (inactive).

`O=[N+]([O-])[C@@H]1C2C=CC(C2)[C@H]1Cl` (stereo not given in full) was tested, and the GI50 [1] was > 100 µM (inactive), the GI50 [2] was > 100 µM (inactive) and the GI50 [3] was > 100 µM (inactive). The GI50 [4] was > 100 µM (inactive), the GI50 [5] was > 100 µM (inactive) and the GI50 [6] was > 100 µM (inactive). For the same compound, the GI50 [7] was > 100 µM (inactive), the GI50 [8] was > 100 µM and the GI50 [9] was > 100 µM (inactive). The GI50 [10] was > 100 µM (inactive), the GI50 [11] was > 100 µM (inactive) and the GI50 [12] was > 100 µM (inactive). For the same compound, the GI50 [13] was > 100 µM (inactive), the GI50 [14] was > 100 µM (inactive) and the GI50 [15] was > 100 µM (inactive). The GI50 [16] was > 100 µM (inactive), the GI50 [17] was > 100 µM (inactive) and the GI50 [18] was > 100 µM (inactive). For the same compound, the GI50 [59] was > 100 µM (inactive), the GI50 [19] was > 100 µM (inactive) and the GI50 [20] was > 100 µM (inactive). For the same compound, the GI50 [21] was > 100 µM (inactive), the GI50 [22] was > 100 µM (inactive) and the GI50 [23] was > 100 µM (inactive). For the same compound, the GI50 [24] was > 100 µM (inactive), the GI50 [25] was > 100 µM (inactive) and the GI50 [26] was > 100 µM (inactive). The GI50 [27] was > 100 µM (inactive), the GI50 [28] was > 100 µM (inactive) and the GI50 [29] was > 100 µM (inactive). For the same compound, the GI50 [30] was > 100 µM (inactive), the GI50 [31] was > 100 µM (inactive) and the GI50 [32] was > 100 µM (inactive). The GI50 [33] was > 100 µM (inactive), the GI50 [56] was > 100 µM (inactive) and the GI50 [34] was > 100 µM (inactive). For the same compound, the GI50 [36] was > 100 µM (inactive), the GI50 [57] was > 100 µM (inactive) and the GI50 [37] was > 100 µM (inactive). For the same compound, the GI50 [39] was > 100 µM (inactive), the GI50 [40] was > 100 µM (inactive) and the GI50 [41] was > 100 µM (inactive). For the same compound, the GI50 [42] was > 100 µM (inactive), the GI50 [43] was > 100 µM (inactive) and the GI50 [44] was > 100 µM (inactive). For the same compound, the GI50 [45] was > 100 µM (inactive), the GI50 [46] was > 100 µM (inactive) and the GI50 [47] was > 100 µM (inactive). The GI50 [49] was > 100 µM (inactive), the GI50 [50] was > 100 µM (inactive) and the GI50 [51] was > 100 µM (inactive). The GI50 [58] was > 100 µM (inactive), the GI50 [52] was > 100 µM (inactive) and the GI50 [53] was > 100 µM (inactive). For the same compound, the GI50 [54] was > 100 µM (inactive) and the GI50 [55] was > 100 µM (inactive).

From ChEMBL document CHEMBL1201862, “PubChem BioAssay data set” (2004)
